{
  "source": "patent US20090233957A1",
  "about": "“(-)-BELOXEPIN AND METHODS FOR ITS SYNTHESIS AND USE” (priority 2008, published 2009)",
  "key": {"[1]": {"target": "T1, cloned human 5HT2A receptor (Homo sapiens, UniProt P28223)", "T1 construct": "expressed in transfected cells; host or cells: HEK-293 cells", "T1 sequence (P28223 whole entry)": "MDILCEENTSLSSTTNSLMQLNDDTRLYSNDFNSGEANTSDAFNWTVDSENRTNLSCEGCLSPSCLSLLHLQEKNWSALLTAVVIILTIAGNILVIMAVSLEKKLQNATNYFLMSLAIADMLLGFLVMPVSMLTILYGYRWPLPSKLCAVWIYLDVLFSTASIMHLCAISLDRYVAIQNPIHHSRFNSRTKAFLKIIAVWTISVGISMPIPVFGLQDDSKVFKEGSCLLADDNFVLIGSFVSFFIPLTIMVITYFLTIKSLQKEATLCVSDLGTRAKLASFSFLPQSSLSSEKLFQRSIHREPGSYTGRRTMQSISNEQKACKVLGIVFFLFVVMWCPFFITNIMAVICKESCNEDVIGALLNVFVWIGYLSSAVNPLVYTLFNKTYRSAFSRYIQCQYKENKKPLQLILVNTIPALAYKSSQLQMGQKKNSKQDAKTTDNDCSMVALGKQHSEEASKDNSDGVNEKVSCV", "assay": "5HT2A functional assay, intracellular Ca2+ in HEK-293 cells", "type": "cell-based", "experimental": "Agonist effects at the 5HT2A receptor were assessed by incubation at 22° C. of a series of concentrations of test compound with intact HEK-293 cells heterologously expressing the cloned human 5HT2A receptor and measuring intracellular [Ca^2+] by fluorimetry according to the method of Jerman et al., 2001, Eur. J. Pharmacol. 414:23-30). Antagonist effects were assessed by the ability of a series of concentrations of test compound to block the increase in intracellular [Ca^2+] that occurred in the presence of 3.0 nM serotonin under the same conditions. EC50 and IC50 values were determined using standard methods."}, "human recombinant CYP2D6": {"target": "T2, human recombinant CYP2D6 (Homo sapiens, UniProt P10635)", "T2 construct": "purchased BD Bioscience", "T2 sequence (P10635 whole entry, the tested form may be a part)": "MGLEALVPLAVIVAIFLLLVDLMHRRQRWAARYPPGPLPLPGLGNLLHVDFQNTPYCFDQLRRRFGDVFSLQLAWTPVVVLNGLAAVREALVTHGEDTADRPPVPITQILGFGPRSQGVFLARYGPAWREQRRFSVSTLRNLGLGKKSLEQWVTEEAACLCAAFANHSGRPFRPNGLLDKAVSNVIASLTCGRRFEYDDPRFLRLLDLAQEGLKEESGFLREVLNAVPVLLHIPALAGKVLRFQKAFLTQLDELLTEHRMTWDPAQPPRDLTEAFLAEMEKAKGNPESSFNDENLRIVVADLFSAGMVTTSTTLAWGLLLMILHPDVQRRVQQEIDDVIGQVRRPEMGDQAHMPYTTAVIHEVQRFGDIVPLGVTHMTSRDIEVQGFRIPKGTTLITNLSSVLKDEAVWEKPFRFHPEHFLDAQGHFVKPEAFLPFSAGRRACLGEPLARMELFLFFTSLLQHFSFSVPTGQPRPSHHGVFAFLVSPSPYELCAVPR", "assay": "CYP2D6 inhibition, MAMC substrate", "type": "in vitro ADME", "details": "microsomes with human recombinant CYP2D6; read-out: CYP2D6 Isoenzyme IC50", "experimental": "Protocol. […] The source of the enzyme was microsomes containing human recombinant CYP2D6 obtained from BD Bioscience. Conversion of MAMC to 7-hydroxy-4-(aminomethyl)coumarin was measured using a PerkinElmer Fusion with a 390 nm excitation filter and a 460 nm emission filter."}, "L5 SNL rats": {"test_system": "L5 SNL rats", "assay": "L5 Single Nerve Ligation model of neuropathic pain, tactile allodynia (von Frey)", "type": "in vivo, rat", "experimental": "Protocol. The antiallodynic activity of (−)-beloxepin was tested in vivo using the L5—Single Nerve Ligation model of non-nociceptive neuropathic pain as described in LaBuda & Little, 2005, J. Neurosci. Methods 144:175-181. The test animals were placed in a Plexiglas chamber (10 cm×20 cm×25 cm) and habituated for 15 minutes. The chamber was positioned on top of a mesh screen so that von Frey monofilaments could be presented to the plantar surface of both hindpaws. Measurement of tactile sensitivity for each hind paw were obtained using the up/down method (Dixon, 1980, Annu. Rev. Pharmacol. Toxicol. 20:441-462) with seven Frey monofilaments (0.4, 1, 2, 4, 6, 8 and 15 grams). Each trial started with a von Frey force of 2 grams delivered to the right hind paw for approximately 1-2 seconds and then the left hind paw. If there was no withdrawal response, the next higher force was delivered. If there was a response, the next lower force was delivered. This procedure was performed until no response was made at the highest force (15 grams) or until four stimuli were administered following the initial response. The 50% paw withdrawal threshold for each paw was calculated using the following formula: [Xth]log=[vFr]log+ky, where [vFr] is the force of the last von Frey used, k=0.2249 which is the average interval (in log units) between the von Frey monofilaments, and y is a value that depends upon the pattern of withdrawal responses (Dixon, 1980, supra). […] Testing for tactile sensitivity was performed twice and the mean 50% withdrawal value assigned as the tactile sensitivity for the right and left paws for each animal.\nResults. The antiallodynic effects produced by (−)-beloxepin (30 mg/kg IP) and (+)-beloxepin (30 mg/kg IP) in L5 SNL rats 8 days post surgery are illustrated in FIG. 1. In this experiment, at 8 days post surgery, rats were treated with vehicle or beloxepin enantiomers (30 mg/kg IP) and tested for tactile allodynia at 30 min post treatment. […] No side effects were observed following treatment with either enantiomer.\nThe antiallodynic effects produced by (−)-beloxepin (30 mg/kg IP) in L5 SNL rats 14 days post surgery are illustrated in FIG. 2. In this experiment, at 14 days post surgery, rats were treated with vehicle or (−)-beloxepin and tested for tactile allodynia at 30, 60, 120 and 240 min post treatment. Vehicle treated rats were tested at 30 min post treatment.\nProtocol. A time course experiment was performed with (−)-beloxepin (60 mg/kg PO) in L5 SNL rats at 7 days post-surgery. Rats were tested at 30, 60, 120, and 240 minutes post-drug.\nProtocol. A time course experiment was also performed with (+)-beloxepin (60 mg/kg PO) in L5 SNL rats at 14 days post-surgery. Rats were tested at 30, 60, 120, and 240 minutes post-drug."}, "[2]": {"target": "T3, cloned human 5HT2B receptor (Homo sapiens, UniProt P41595)", "T3 construct": "expressed in transfected cells; host or cells: CHO cells", "T3 sequence (P41595 whole entry)": "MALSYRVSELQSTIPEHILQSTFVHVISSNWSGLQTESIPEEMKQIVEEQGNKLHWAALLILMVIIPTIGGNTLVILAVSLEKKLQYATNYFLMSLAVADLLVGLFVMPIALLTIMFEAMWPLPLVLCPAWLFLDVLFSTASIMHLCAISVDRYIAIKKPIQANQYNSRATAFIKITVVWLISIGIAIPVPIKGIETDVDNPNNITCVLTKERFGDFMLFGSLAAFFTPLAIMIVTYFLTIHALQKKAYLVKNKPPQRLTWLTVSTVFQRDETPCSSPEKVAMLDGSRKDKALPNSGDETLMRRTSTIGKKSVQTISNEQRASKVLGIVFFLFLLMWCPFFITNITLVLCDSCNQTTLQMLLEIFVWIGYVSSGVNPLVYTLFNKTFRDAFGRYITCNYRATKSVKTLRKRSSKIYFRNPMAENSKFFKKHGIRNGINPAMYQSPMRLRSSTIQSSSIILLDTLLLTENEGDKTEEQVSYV", "assay": "5HT2B receptor binding assay, [125I]DOI", "details": "CHO membranes", "experimental": "For the 5HT2B receptor binding assay, [^125I](±)[…] (DOI) (0.2 nM) was incubated for 15 min at 37° C. with membranes prepared from Chinese hamster ovary cells heterologously expressing the cloned human 5HT2B receptor according to the method of Choi et al., 1994, FEBS Lett 352:393-399. Various concentrations of test compound were added and bound radioactivity was determined by scintillation counting. Non-specific binding was determined in the presence of 1.0 μM unlabeled DOI. The Ki value for the test compound was determined using standard methods."}, "[3]": {"target": "T4, cloned human 5HT2C receptor (Homo sapiens, UniProt P28335)", "T4 construct": "expressed in transfected cells; host or cells: CHO cells", "T4 sequence (P28335 33-458)": "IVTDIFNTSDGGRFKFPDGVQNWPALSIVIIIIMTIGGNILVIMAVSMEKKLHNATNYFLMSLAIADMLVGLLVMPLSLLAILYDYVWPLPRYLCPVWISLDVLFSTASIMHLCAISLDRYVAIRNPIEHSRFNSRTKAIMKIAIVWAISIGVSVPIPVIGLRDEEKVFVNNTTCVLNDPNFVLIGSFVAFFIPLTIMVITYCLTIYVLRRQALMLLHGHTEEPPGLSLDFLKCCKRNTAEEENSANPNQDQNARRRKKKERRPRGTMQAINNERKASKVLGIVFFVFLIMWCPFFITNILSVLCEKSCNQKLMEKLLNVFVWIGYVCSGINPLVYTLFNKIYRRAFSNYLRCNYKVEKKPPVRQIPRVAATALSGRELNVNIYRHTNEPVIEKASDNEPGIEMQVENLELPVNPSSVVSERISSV", "assay": "5HT2C receptor binding assay, [3H]mesulergine", "details": "CHO membranes", "experimental": "For the 5HT2C receptor binding assay, [^3H]mesulergine (1.0 nM) was incubated for 60 min at 37° C. with membranes prepared from Chinese hamster ovary cells heterologously expressing the cloned human 5-HT2C receptor according to the method of Stam et al., 1994, Eur. J. Pharmacol. 269:339-348. Various concentrations of test compound were added and bound radioactivity was determined by scintillation counting. Non-specific binding was determined in the presence of 10 μM RS102221. The Ki value for the test compound was determined using standard methods."}},
  "data": [
    {"compound": "Cc1cccc2c1Oc1ccccc1C1(O)CCN(C)CC21", "note": "(single isomer, unassigned; (+)) [(+)-beloxepin]", "values": [
      {"measurement": "5HT2A functional activity type", "setting": "[1]", "value": "antagonist"},
      {"measurement": "IC50", "setting": "[1]; antagonist mode, vs 3.0 nM serotonin", "value": 1.6, "unit": "µM"},
      {"measurement": "IC50", "setting": "human recombinant CYP2D6", "value": 0.236, "unit": "µM"},
      {"measurement": "antiallodynic effect", "setting": "L5 SNL rats; 30 mg/kg IP, 8 days post surgery, 30 min post treatment", "value": "not statistically significant"},
      {"measurement": "antiallodynic effect", "setting": "L5 SNL rats; 60 mg/kg PO, 14 days post-surgery, tested 30, 60, 120, 240 min", "value": "did not produce significant antiallodynic effects at any time point"},
      {"measurement": "Ki", "setting": "[2]", "value": 0.17, "unit": "µM"},
      {"measurement": "Ki", "setting": "[3]", "value": 0.084, "unit": "µM"}
    ]}
  ]
}
